Values quoted from earlier work, collected in publication PMC8124668, “Preclinical Assessment Addressing Intravenous Administration of a [^68Ga]Ga-PSMA-617 Microemulsion: Acute In Vivo Toxicity, Tolerability, PET Imaging, and Biodistribution” (Molecules, 2021).

Test system: male rats
Parameters: method as in PMID 28283702
Settings: once weekly IV bolus on days 1, 8, 15 and 22, at 400 mg/kg

O=C(O)CCC(NC(=O)NC(CCCCNC(=O)C(Cc1ccc2ccccc2c1)NC(=O)C1CCC(CNC(=O)CN2CCN(CC(=O)O)CCN(CC(=O)O)CCN(CC(=O)O)CC2)CC1)C(=O)O)C(=O)O (stereo not shown) [PSMA-617, 2-[3-(1-Carboxy-5-{3-naphthalen-2-yl-2-[(4-{[2-(4,7,10-tris-carboxymethyl-1,4,7,10-tetraaza-cyclododec-1-yl)-acetylamino]-methyl}-cyclohexanecarbonyl)-amino]-propionylamino}-pentyl)-ureido]-pentanedioic acid]
local or systemic intolerance reactions: No signs of local or systemic intolerance reactions
